Measured values as given in the NIST ThermoML archive (doi:10.1016/j.tca.2011.02.027).

How the values were obtained:
[1] = molar heat capacity at constant pressure; xn = mol fraction of the nth substance listed; details: 101.3 kPa, Liquid, Large sample (1 g) DSC
[2] = molar heat capacity at constant pressure; details: 101.33 kPa, Liquid, Large sample (1 g) DSC
[3] = Crystal; DTA

CCCCn1cc[n+](C)c1.[Cl-] [1-butyl-3-methylimidazolium chloride] + O
molar heat capacity at constant pressure [J/K/mol], [1]
Details | x1 = 0.2 | x1 = 0.4 | x1 = 0.6 | x1 = 0.8 | x1 = 1
303.2 K | 125.6 | 170.2 | 218.6 | 272.6 | –
308.2 K | 126.7 | 171.6 | 220 | 274.4 | –
313.2 K | 127.7 | 173 | 221.8 | 276.3 | –
318.2 K | 128.6 | 174.5 | 223.9 | 279.3 | –
323.2 K | 129.9 | 176.2 | 225.9 | 280.9 | –
328.2 K | 130.9 | 177.6 | 228 | 282.9 | –
333.2 K | 131.8 | 179 | 230 | 285.5 | –
338.2 K | 133.1 | 180.5 | 232 | 288.2 | –
343.2 K | 133.8 | 182.2 | 234.1 | 290.5 | 337.2
348.2 K | 135.2 | 183.6 | 236.4 | 293.1 | 340.3
353.2 K | 136 | 185.9 | 238.6 | 296.3 | 343.3
358.2 K | – | – | – | – | 347.1
363.2 K | – | – | – | – | 350.6
368.2 K | – | – | – | – | 354.3
373.2 K | – | – | – | – | 357.6
378.2 K | – | – | – | – | 361
383.2 K | – | – | – | – | 364.3
388.2 K | – | – | – | – | 367.4
393.2 K | – | – | – | – | 370.7
398.2 K | – | – | – | – | 374
403.2 K | – | – | – | – | 376.8

CCCCn1cc[n+](C)c1C.F[B-](F)(F)F [1-butyl-2,3-dimethylimidazolium tetrafluoroborate]
[2]
Details | molar heat capacity at constant pressure [J/K/mol]
313.2 K | 397.3
318.2 K | 398.8
323.2 K | 400.6
328.2 K | 403.3
333.2 K | 405.4
338.2 K | 407.8
343.2 K | 410.6
348.2 K | 413.5
353.2 K | 416.5
358.2 K | 420.2
363.2 K | 423.6
368.2 K | 427.3
373.2 K | 430.6
378.2 K | 434.4
383.2 K | 436.3

Details | Normal melting temperature [°C]
[3] | 32.00

CCCCn1cc[n+](C)c1C.F[B-](F)(F)F [1-butyl-2,3-dimethylimidazolium tetrafluoroborate] + O
molar heat capacity at constant pressure [J/K/mol], [1]
Details | x1 = 0.2 | x1 = 0.4 | x1 = 0.6 | x1 = 0.8 | x1 = 1
303.2 K | 146.9 | 217.5 | 284.4 | 343 | –
308.2 K | 147.2 | 218.2 | 285.6 | 344.2 | –
313.2 K | 147.8 | 219.3 | 287 | 346.3 | 397.3
318.2 K | 148.4 | 220.4 | 288.6 | 348.5 | 398.8
323.2 K | 149.1 | 221.7 | 290.3 | 351 | 400.6
328.2 K | 149.8 | 223.2 | 292.1 | 353.2 | 403.3
333.2 K | 150.4 | 224.1 | 293.5 | 355.6 | 405.4
338.2 K | 151.1 | 225.2 | 295.7 | 358.1 | 407.8
343.2 K | 151.7 | 226.4 | 297.6 | 360.8 | 410.6
348.2 K | 152.4 | 227.7 | 299.5 | 363.5 | 413.5
353.2 K | 153.1 | 229.2 | 301.7 | 366.3 | 416.5
358.2 K | – | – | – | – | 420.2
363.2 K | – | – | – | – | 423.6
368.2 K | – | – | – | – | 427.3
373.2 K | – | – | – | – | 430.6
378.2 K | – | – | – | – | 434.4
383.2 K | – | – | – | – | 436.3

CCCCn1cc[n+](C)c1.[Cl-] [1-butyl-3-methylimidazolium chloride]
[2]
Details | molar heat capacity at constant pressure [J/K/mol]
343.2 K | 337.2
348.2 K | 340.3
353.2 K | 343.3
358.2 K | 347.1
363.2 K | 350.6
368.2 K | 354.3
373.2 K | 357.6
378.2 K | 361
383.2 K | 364.3
388.2 K | 367.4
393.2 K | 370.7
398.2 K | 374
403.2 K | 376.8

Details | Normal melting temperature [°C]
[3] | 57.00

CCCCn1cc[n+](C)c1C.F[P-](F)(F)(F)(F)F [1-butyl-2,3-dimethylimidazolium hexafluorophosphate] + O
molar heat capacity at constant pressure [J/K/mol], [1]
Details | x1 = 0.8 | x1 = 0.85 | x1 = 0.9 | x1 = 0.95 | x1 = 1
303.2 K | 387 | 396.4 | 407.2 | 418.3 | –
308.2 K | 389.2 | 398.4 | 409.4 | 420.5 | –
313.2 K | 391.2 | 400.5 | 411.9 | 423.3 | –
318.2 K | 393.4 | 402.7 | 414.5 | 426 | –
323.2 K | 395.9 | 405.5 | 417.7 | 429.4 | 439.3
328.2 K | 398.9 | 408.8 | 421.3 | 433.2 | 442.9
333.2 K | 401.8 | 411.9 | 424.7 | 436.7 | 446.2
338.2 K | 404.5 | 414.9 | 428 | 440.1 | 449.4
343.2 K | 407.5 | 417.9 | 431.2 | 443.5 | 452.7
348.2 K | 411.1 | 421.7 | 435.2 | 447.6 | 457
353.2 K | 414.1 | 424.8 | 438.3 | 450.9 | 460.1
358.2 K | – | – | – | – | 464.4
363.2 K | – | – | – | – | 468
368.2 K | – | – | – | – | 471.6
373.2 K | – | – | – | – | 475.1
378.2 K | – | – | – | – | 478.9
383.2 K | – | – | – | – | 482.6

CCCCn1cc[n+](C)c1C.F[P-](F)(F)(F)(F)F [1-butyl-2,3-dimethylimidazolium hexafluorophosphate]
[2]
Details | molar heat capacity at constant pressure [J/K/mol]
323.2 K | 439.3
328.2 K | 442.9
333.2 K | 446.2
338.2 K | 449.4
343.2 K | 452.7
348.2 K | 457
353.2 K | 460.1
358.2 K | 464.4
363.2 K | 468
368.2 K | 471.6
373.2 K | 475.1
378.2 K | 478.9
383.2 K | 482.6

Details | Normal melting temperature [°C]
[3] | 38.00

CCCCn1cc[n+](C)c1.[Br-] [1-butyl-3-methylimidazolium bromide]
[2]
Details | molar heat capacity at constant pressure [J/K/mol]
353.2 K | 334.8
358.2 K | 338.1
363.2 K | 341.1
368.2 K | 344.6
373.2 K | 347.5
378.2 K | 350.6
383.2 K | 354.1
388.2 K | 356.7
393.2 K | 359.9
398.2 K | 363.4
403.2 K | 366.4

Details | Normal melting temperature [°C]
[3] | 73.00
